Measurements: article PMC5201331, “Subchronic Toxicities of HZ1006, a Hydroxamate-Based Histone Deacetylase Inhibitor, in Beagle Dogs and Sprague-Dawley Rats” (International Journal of Environmental Research and Public …, 2016)

Legend:
Beagle dogs = assay: Subchronic toxicity test in Beagle dogs: organ weights; type: in vivo
Procedure: HZ1006 was administered orally to dogs (four/sex/group) at doses of 80, 40, 20, 5 and 0 (control) mg/kg/day, and the dosage volume was 2 mL/kg. The dogs received test doses with the exact amounts on a weekly basis based on current body weights. […] The other dogs in the above groups were dissected on the planned days. For the other groups, half of the dogs were anatomized on d28 and the remaining half on d42.
After euthanasia, the following organs or tissues were isolated from the dogs and rats: skin, abnormal lesions, spleen, mammary glands, jejunum, pancreas, ileum, duodenum, stomach, colon, cecum, lymph nodes, mesenteric salivary glands, liver, submandibular lymph nodes, thymus, sternum, lungs, heart, esophagus, trachea, tongue, thyroid with parathyroid gland, sciatic nerve, aorta, femurs, skeletal muscle, pituitary gland, brain, kidneys, eyes, urinary bladder, adrenal glands, uterus, ovaries, testes, epididymis and prostate. The weights of the animal organs, such as the liver, spleen, heart, thymus, brain, lungs, adrenal glands, kidneys, uterus, ovaries, epididymis and testes, were tested using an electronic balance. The organs or tissues were fixed using 10% neutral buffered formalin and were then gradient dehydrated, embedded, sectioned, and stained with routine hematoxylin-eosin prior to histopathological observations.

[1] = Toxicokinetics in SD rats; type: in vivo, Sprague-Dawley (SD) rats; settings: for AUC(0-inf) / Cmax / Tmax / half-life: both sexes, Sprague-Dawley, rat, plasma, po, SD rats; for accumulation coefficient R: rats, after 28 days compared with d1
Procedure: The rats that were judged suitable for the subchronic toxicity study were randomly divided into four groups (10 rats/sex/group). The rats received the test sample by gavage once daily for 28 days. HZ1006 was administered to the rats at doses of 120, 60, 20 and 0 (control) mg/kg, and the dosage volume was 5 mL/kg. Half of the 80 rats (half male and half female) were selected randomly according to body weight and dissected at d28. The remaining rats were dissected at […]. The dogs' blood samples were obtained on the 1st day, the 14th day and the last day (d28) of dosage for plasma HZ1006 content analyses at 0 (1st day only), 1/6, 0.5, 1, 2, 4, 8, 12 and 24 h after dosing, and the blood samples of the rats were acquired on the 1st day and 28th day at the same time as those of the dogs, which were handled and analyzed according to the procedure reported by Zhang et al..

[2] = dog ♂5 (80 mg/kg/day oral), d28
[3] = dog ♂23 (40 mg/kg/day oral), d28
[4] = dogs, 5 mg/kg/day oral, d42 (recovery)
[5] = dogs, 20 mg/kg/day oral, d42 (recovery)
[6] = dogs, 40 mg/kg/day oral, d42 (recovery)
[7] = dogs, 80 mg/kg/day oral, d42 (recovery)
[8] = 20 mg/kg/day, 20 mg/kg/day oral, 28 days
[9] = 20 mg/kg/day, 20 mg/kg/day oral, single
[10] = 60 mg/kg/day, 60 mg/kg/day oral, 28 days
[11] = 60 mg/kg/day, 60 mg/kg/day oral, single
[12] = 120 mg/kg/day, 120 mg/kg/day oral, 28 days
[13] = 120 mg/kg/day, 120 mg/kg/day oral, single

SMILES: CCCCCCCNc1cc(/C=C/C(=O)NO)ccc1OCCN(CC)CC [HZ1006]
- Lung absolute weight (Beagle dogs; [2]): 135.9 g
- Lung relative weight (Beagle dogs; [2]): 13.39
- Lung absolute weight (Beagle dogs; [3]): 109.8 g
- Lung relative weight (Beagle dogs; [3]): 12.34
- Lung absolute weight (Beagle dogs; dogs, 5 mg/kg/day oral, d28): 72.7 ± 8.2 g
- Lung relative weight (Beagle dogs; dogs, 5 mg/kg/day oral, d28): 6.90 ± 0.90
- Testis absolute weight (Beagle dogs; dogs, 5 mg/kg/day oral, d28): 13.550 ± 0.494 g
- Testis relative weight (Beagle dogs; dogs, 5 mg/kg/day oral, d28): 1.23 ± 0.03
- Testis absolute weight (Beagle dogs; [4]): 14.050 ± 0.212 g
- Testis relative weight (Beagle dogs; [4]): 1.45 ± 0.04
- Lung absolute weight (Beagle dogs; dogs, 20 mg/kg/day oral, d28): 71.4 ± 12.6 g
- Lung relative weight (Beagle dogs; dogs, 20 mg/kg/day oral, d28): 6.96 ± 1.02
- Testis absolute weight (Beagle dogs; dogs, 20 mg/kg/day oral, d28): 13.953 ± 0.081 g
- Testis relative weight (Beagle dogs; dogs, 20 mg/kg/day oral, d28): 1.31 ± 0.26
- Lung absolute weight (Beagle dogs; [5]): 74.0 ± 8.8 g
- Lung relative weight (Beagle dogs; [5]): 7.37 ± 0.67
- Testis absolute weight (Beagle dogs; [5]): 12.179 ± 0.518 g
- Testis relative weight (Beagle dogs; [5]): 1.21 ± 0.01
- Lung absolute weight (Beagle dogs; dogs, 40 mg/kg/day oral, d28): 92.4 ± 15.4 g
- Lung relative weight (Beagle dogs; dogs, 40 mg/kg/day oral, d28): 9.87 ± 2.14
- Testis absolute weight (Beagle dogs; dogs, 40 mg/kg/day oral, d28): 6.631 ± 2.855 g
- Testis relative weight (Beagle dogs; dogs, 40 mg/kg/day oral, d28): 0.69 ± 0.24
- Lung absolute weight (Beagle dogs; [6]): 70.4 ± 5.0 g
- Lung relative weight (Beagle dogs; [6]): 7.10 ± 1.13
- Testis absolute weight (Beagle dogs; [6]): 9.400 ± 0.063 g
- Testis relative weight (Beagle dogs; [6]): 0.78 ± 0.21
- Lung absolute weight (Beagle dogs; dogs, 80 mg/kg/day oral, d28): 95.8 ± 35.3 g
- Lung relative weight (Beagle dogs; dogs, 80 mg/kg/day oral, d28): 9.87 ± 3.27
- Testis absolute weight (Beagle dogs; dogs, 80 mg/kg/day oral, d28): 5.660 ± 1.608 g
- Testis relative weight (Beagle dogs; dogs, 80 mg/kg/day oral, d28): 0.61 ± 0.23
- Lung absolute weight (Beagle dogs; [7]): 82.9 ± 6.8 g
- Lung relative weight (Beagle dogs; [7]): 8.49 ± 0.95
- Testis absolute weight (Beagle dogs; [7]): 6.017 ± 2.937 g
- Testis relative weight (Beagle dogs; [7]): 0.63 ± 0.31
- AUC(0-inf) [1, 8]: 32.7 ± 14.9 ng·h/mL
- Cmax [1, 8]: 12.9 ± 9.5 ng/mL
- Tmax [1, 8]: 0.34 ± 0.18 h
- half-life [1, 8]: 7.32 ± 2.93 h
- AUC(0-inf) [1, 9]: 8 ± 9.1 ng·h/mL
- Cmax [1, 9]: 7.5 ± 7.2 ng/mL
- Tmax [1, 9]: 0.86 ± 1.54 h
- half-life [1, 9]: 0.6 ± 0.37 h
- AUC(0-inf) [1, 10]: 114 ± 30.9 ng·h/mL
- Cmax [1, 10]: 19.7 ± 3.3 ng/mL
- Tmax [1, 10]: 0.28 ± 0.17 h
- half-life [1, 10]: 7.57 ± 2.31 h
- AUC(0-inf) [1, 11]: 39.1 ± 15 ng·h/mL
- Cmax [1, 11]: 13.3 ± 5.5 ng/mL
- Tmax [1, 11]: 0.5 h
- half-life [1, 11]: 6.83 ± 2.69 h
- AUC(0-inf) [1, 12]: 447 ± 282 ng·h/mL
- Cmax [1, 12]: 57.5 ± 26.1 ng/mL
- Tmax [1, 12]: 1.92 ± 3.07 h
- half-life [1, 12]: 7.03 ± 1.9 h
- AUC(0-inf) [1, 13]: 69.9 ± 22.9 ng·h/mL
- Cmax [1, 13]: 20.4 ± 3.8 ng/mL
- Tmax [1, 13]: 0.45 ± 0.13 h
- half-life [1, 13]: 6.51 ± 1.62 h
- accumulation coefficient R ([1]; 20 mg/kg/day oral): 16.8 ± 21.6
- accumulation coefficient R ([1]; 60 mg/kg/day oral): 3.2 ± 1.2
- accumulation coefficient R ([1]; 120 mg/kg/day oral): 6.3 ± 2.8
